Source: patent EP4813984A1 (Jiangsu Hengrui Pharmaceuticals Co., Ltd., priority 2023, dated 2025)

Each compound was assayed against T1, hGLP-1 receptor (Homo sapiens, UniProt P43220) (assay: Agonist activity against GLP-1 receptor (CRE-luciferase reporter, ONE-Glo Luciferase Assay System)). Conditions: CHO-K1/CRE-luc/hGLP-1 receptor cells; 5 h incubation with compound; chemiluminescence readout.
T1 construct: expressed in transfected cells; host or cells: CHO-K1 (stably transfected with hGLP-1 receptor plasmid and CRE-luc plasmid)
T1 sequence (P43220 24-463): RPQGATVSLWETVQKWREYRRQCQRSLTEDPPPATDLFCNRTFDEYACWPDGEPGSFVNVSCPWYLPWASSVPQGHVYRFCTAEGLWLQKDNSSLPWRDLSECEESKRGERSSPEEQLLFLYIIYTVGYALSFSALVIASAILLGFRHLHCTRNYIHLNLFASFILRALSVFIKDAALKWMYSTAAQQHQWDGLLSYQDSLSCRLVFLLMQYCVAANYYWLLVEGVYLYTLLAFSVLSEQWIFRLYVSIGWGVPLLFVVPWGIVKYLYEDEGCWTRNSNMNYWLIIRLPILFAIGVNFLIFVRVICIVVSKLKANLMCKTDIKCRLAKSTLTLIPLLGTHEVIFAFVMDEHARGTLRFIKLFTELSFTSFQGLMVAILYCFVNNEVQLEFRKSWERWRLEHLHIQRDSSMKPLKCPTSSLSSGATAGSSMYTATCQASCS
Format: cell-based
From the text: This experiment was intended to test the agonist activity of compound molecules against hGLP-1 receptor and evaluate the in vitro activity of the molecules according to EC50. In this experiment, ONE-Glo™ Luciferase Assay System (ONE-Glo™ Luciferase Assay System, Promega, E6110) was used. Under the action of the compound molecules, GLP-1R downstream signaling pathways were activated to cause elevated cAMP level. The binding of cAMP to CRE could initiate the transcriptional expression of a CRE downstream luciferase gene. The luciferase could emit fluorescence when reacting with a substrate thereof. The fluorescence signal, which reflected the activity of the compound for agonizing GLP-1 receptor, was measured by means ONE-Glo™ reagent.
A stably transfected CHO-K1/CRE-luc/hGLP-1 receptor cell strain (hGLP-1 receptor plasmid constructed in-house and CRE-luc plasmid Promega E8471) was constructed. CHO-K1/CRE-luc/hGLP-1 receptor cells were digested, centrifuged, and then resuspended. The single cell suspension was uniformly mixed and adjusted to a viable cell density of 2.78 × 10^5 cells/ml with a cell culture medium (DME/F-12 + 10% FBS). The resulting solution was added to a 96-well cell culture plate at 90 µL/well (Corning, #3903). The culture plate was incubated in an incubator for 16 h (37°C, 5% CO2).
The compound was dissolved in DMSO to prepare a stock solution with an initial concentration of 20 mM. The starting concentration of the small molecule compound was 0.02 mM. The compound was subjected to 3-fold dilution for 10 points, wherein the 11th point was DMSO. Another 96-well plate was taken, to which was added 95 µL/well of a cell culture medium (DME/F-12 + 10% FBS), followed by 5 µL/well of test samples with different concentrations. The mixtures were uniformly mixed. Next, 10 µL/well of test samples with different concentrations were added to the cell culture plate, with two duplicate wells for each sample. The culture plate was incubated in an incubator for 5 h (37°C, 5% CO2). The 96-well cell culture plate was taken out. 100 µL/well of ONE-Glo™ reagent was added, followed by incubation at room temperature for 10 minutes. Chemiluminescence was measured in and by a microplate reader (PHERAstar FS, BMG labtech).
Data were processed and analyzed using Microsoft Excel and Graphpad Prism 10. EC50 values of the compounds were obtained. Table 1. Agonist activity of the compounds of the present invention against hGLP-1 receptor

SMILES	EC50 [nM]	Emax [fold]
Cc1cc(-n2nc3c(c2N2C[C@@H]4COc5c(ccc6c5cnn6C5CC5)N4C2=O)[C@H](C)N(C(=O)c2cc4cc([C@H]5CCOC(C)(C)C5)ccc4n2[C@@]2(c4noc(=O)[nH]4)C[C@@H]2C)CC3)cc(C)c1F [Compound 24, (R)-1-cyclopropyl-7-((S)-5-(5-((S)-2,2-dimethyltetrahydro-2H-pyran-4-yl)-1-((1S,2S)-2-methyl-1-(5-oxo-4,5-dihydro-1,2,4-oxadiazol-3-yl)cyclopropyl)-1H-indole-2-carbonyl)-2-(4-fluoro-3,5-dimethylphenyl)-4-methyl-4,5,6,7-tetrahydro-2H-pyrazolo[4,3-c]pyridin-3-yl)-5,5a,6,7-tetrahydro-1H,8H-imidazo[1',5':4,5][1,4]oxazino[2,3-e]indazol-8-one]	0.03	18.51
Cc1cc(-n2nc3c(c2N2C[C@@H]4COc5c(ccc6c5cnn6C)N4C2=O)[C@H](C)N(C(=O)c2cc4cc([C@H]5CCOC(C)(C)C5)ccc4n2[C@@]2(c4noc(=O)[nH]4)C[C@@H]2C)CC3)cc(C)c1F [Compound 23, (R)-7-((S)-5-(5-((S)-2,2-dimethyltetrahydro-2H-pyran-4-yl)-1-((1S,2S)-2-methyl-1-(5-oxo-4,5-dihydro-1,2,4-oxadiazol-3-yl)cyclopropyl)-1H-indole-2-carbonyl)-2-(4-fluoro-3,5-dimethylphenyl)-4-methyl-4,5,6,7-tetrahydro-2H-pyrazolo[4,3-c]pyridin-3-yl)-1-methyl-5,5a,6,7-tetrahydro-1H,8H-imidazo[1',5':4,5][1,4]oxazino[2,3-e]indazol-8-one]	0.02	22.76
Cc1cc(-n2nc3c(c2N2C[C@@H]4COc5cc6c(cnn6C(F)F)c(F)c5N4C2=O)[C@H](C)N(C(=O)c2cc4cc([C@H]5CCOC(C)(C)C5)ccc4n2[C@@]2(c4noc(=O)[nH]4)C[C@@H]2C)CC3)cc(C)c1F [Compound 25, (R)-7-(difluoromethyl)-2-((S)-5-(5-((S)-2,2-dimethyltetrahydro-2H-pyran-4-yl)-1-((1S,2S)-2-methyl-1-(5-oxo-4,5-dihydro-1,2,4-oxadiazol-3-yl)cyclopropyl)-1H-indole-2-carbonyl)-2-(4-fluoro-3,5-dimethylphenyl)-4-methyl-4,5,6,7-tetrahydro-2H-pyrazolo[4,3-c]pyridin-3-yl)-10-fluoro-2,3,3a,4-tetrahydro-1H,7H-imidazo[1',5':4,5][1,4]oxazino[3,2-f]indazol-1-one]	0.02	18.46
COCCn1ncc2c(F)c3c(cc21)OC[C@H]1CN(c2c4c(nn2-c2cc(C)c(F)c(C)c2)CCN(C(=O)c2cc5cc([C@H]6CCOC(C)(C)C6)ccc5n2[C@@]2(c5noc(=O)[nH]5)C[C@@H]2C)[C@H]4C)C(=O)N31 [Compound 30, (R)-2-((S)-5-(5-((S)-2,2-dimethyltetrahydro-2H-pyran-4-yl)-1-((1S,2S)-2-methyl-1-(5-oxo-4,5-dihydro-1,2,4-oxadiazol-3-yl)cyclopropyl)-1H-indole-2-carbonyl)-2-(4-fluoro-3,5-dimethylphenyl)-4-methyl-4,5,6,7-tetrahydro-2H-pyrazolo[4,3-c]pyridin-3-yl)-10-fluoro-7-(2-methoxyethyl)-2,3,3a,4-tetrahydro-1H,7H-imidazo[1',5':4,5][1,4]oxazino[3,2-f]indazol-1-one]	0.02	20.59
Cc1cc(-n2nc3c(c2N2C[C@@H]4COc5cc6c(cnn6CC6CC6)c(F)c5N4C2=O)[C@H](C)N(C(=O)c2cc4cc([C@H]5CCOC(C)(C)C5)ccc4n2[C@@]2(c4noc(=O)[nH]4)C[C@@H]2C)CC3)cc(C)c1F [Compound 51, (R)-7-(cyclopropylmethyl)-2-((S)-5-(5-((S)-2,2-dimethyltetrahydro-2H-pyran-4-yl)-1-((1S,2S)-2-methyl-1-(5-oxo-4,5-dihydro-1,2,4-oxadiazol-3-yl)cyclopropyl)-1H-indole-2-carbonyl)-2-(4-fluoro-3,5-dimethylphenyl)-4-methyl-4,5,6,7-tetrahydro-2H-pyrazolo[4,3-c]pyridin-3-yl)-10-fluoro-2,3,3a,4-tetrahydro-1H,7H-imidazo[1',5':4,5][1,4]oxazino[3,2-f]indazol-1-one]	0.02	21.19
